Measurements reported in patent US20240239775A1, “FXR REGULATOR, PREPARATION METHOD THEREFOR, PHARMACEUTICAL COMPOSITION THEREOF AND USE THEREOF” (QINGDAO RUIJI MEDICAL TECHNOLOGY CO., LTD., priority 2021, published 2024).
pIC50: −log10 of the molar value.

The molecules below were run against T1, FXR (Homo sapiens, UniProt Q96RI1) (assay: FXR antagonist screening by TR-FRET (LanthaScreen TR-FRET FXR co-activation assay kit)). Settings: Table 1.2, FXR antagonistic activity; TR-FRET with CDCA; geometric means of at least two independent runs.
T1 construct: 5 μL of 20 nM FXR-LBD Complete Coregulator buffer G; purchased ThermoFisher PV4833
T1 sequence (Q96RI1 262-486 limits assumed): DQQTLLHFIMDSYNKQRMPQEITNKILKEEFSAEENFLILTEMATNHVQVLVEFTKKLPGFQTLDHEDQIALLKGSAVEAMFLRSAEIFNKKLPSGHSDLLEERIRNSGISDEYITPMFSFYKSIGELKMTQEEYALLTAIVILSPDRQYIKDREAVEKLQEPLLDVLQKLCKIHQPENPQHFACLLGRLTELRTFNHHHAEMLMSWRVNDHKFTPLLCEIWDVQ
Type: biochemical
Experimental: FXR activity was evaluated by time-resolved fluorescence resonance energy transfer (TR-FRET) assay, using LanthaScreen™ TR-FRET FXR co-activation assay kit (ThermoFisher, Cat. PV4833). For agonist screening, 10 μL of Complete Coregulator buffer G containing the corresponding concentration of the compound to be tested, 5 μL of 20 nM FXR-LBD Complete Coregulator buffer G, and 5 μL of 2.0 μM Fluorescein-SRC2-2/20 nM Tb-anti-GST antibody Complete Coregulator buffer G were added to each well of a 384-well black plate (Coring) in sequence. […] Three duplicate wells were set up for each compound, with CDCA as the positive compound and DMSO as the solvent control. For antagonist screening, 5 μL of Complete Coregulator buffer G containing the corresponding concentration of the compound to be tested, 5 μL of 20 nM FXR-LBD Complete Coregulator buffer G, 5 μL of 200 μM CDCA FXR-LBD Complete Coregulator buffer G, and 5 μL of 2.0 μM Fluorescein-SRC2-2/20 nM Tb-anti-GST antibody Complete Coregulator buffer G were added to each well of a 384-well black plate (Coring) in sequence and incubated at room temperature for 10 h. Following operations were the same as those for agonist screening

**Q.** With Cc1c(C(=O)O)oc2ccc(S(=O)(=O)N(CCc3ccccc3)c3ccccc3N3CCN(C(=O)c4ccc[nH]4)CC3)cc12 [Example F27-S124, 5-(N-(2-(4-(1H-pyrrole-2-carbonyl)piperazin-1-yl)phenyl)-N-phenethylsulfamoyl)-3-methylbenzofuran-2-carboxylic acid] as the molecule, how does the pIC50 read?
**A.** 5.00 to 7.00

**Q.** How did the pIC50 turn out when Cc1c(C(=O)O)oc2ccc(S(=O)(=O)N(CCc3ccccc3)c3ccccc3N3CCN(C(=O)c4sccc4Br)CC3)cc12 [Example F27-S125, 5-(N-(2-(4-(3-bromothiophene-2-carbonyl)piperazin-1-yl)phenyl)-N-phenethylsulfamoyl)-3-methyl benzofuran-2-carboxylic acid] was run?
**A.** 5.00 to 7.00

**Q.** Cc1c(C(=O)O)oc2ccc(S(=O)(=O)N(CCc3ccccc3)c3ccccc3N3CCN(C(=O)c4sccc4Cl)CC3)cc12 [Example F27-S126, 5-(N-(2-(4-(3-chlorothiophene-2-carbonyl)piperazin-1-yl)phenyl)-N-phenethylsulfamoyl)-3-methyl benzofuran-2-carboxylic acid] was tested. Which pIC50 did it give?
**A.** 5.00 to 7.00

**Q.** How did the pIC50 turn out when Cc1c(C(=O)O)oc2ccc(S(=O)(=O)N(CCc3ccccc3)c3ccccc3N3CCN(C(=O)c4cc(Br)cs4)CC3)cc12 [Example F27-S127, 5-(N-(2-(4-(4-bromothiophene-2-carbonyl)piperazin-1-yl)phenyl)-N-phenethylsulfamoyl)-3-methyl benzofuran-2-carboxylic acid] was run?
**A.** 5.00 to 7.00

**Q.** With Cc1c(C(=O)O)oc2ccc(S(=O)(=O)N(CCc3ccccc3)c3ccccc3N3CCN(C(=O)c4ccc(Cl)s4)CC3)cc12 [Example F27-S128, 5-(N-(2-(4-(5-chlorothiophene-2-carbonyl)piperazin-1-yl)phenyl)-N-phenethylsulfamoyl)-3-methyl benzofuran-2-carboxylic acid] as the molecule, how does the pIC50 read?
**A.** 5.00 to 7.00

**Q.** How did the pIC50 turn out when Cc1c(C(=O)O)oc2ccc(S(=O)(=O)N(CCc3ccccc3)c3ccccc3N3CCN(C(=O)c4cncs4)CC3)cc12 [Example F27-S129, 3-methyl-5-(N-phenethyl-N-(2-(4-(thiazole-5-carbonyl)piperazin-1-yl)phenyl)sulfamoyl)benzofuran-2-carboxylic acid] was run?
**A.** 5.00 to 7.00

**Q.** Cc1c(C(=O)O)oc2ccc(S(=O)(=O)N(CCc3ccccc3)c3ccccc3N3CCN(C(=O)c4cc[nH]n4)CC3)cc12 [Example F27-S130, 5-(N-(2-(4-(1H-pyrazole-3-carbonyl)piperazin-1-yl)phenyl)-N-phenethylsulfamoyl)-3-methylbenzo furan-2-carboxylic acid] was tested. Which pIC50 did it give?
**A.** 5.00 to 7.00

**Q.** With Cc1c(C(=O)O)oc2ccc(S(=O)(=O)N(CCc3ccccc3)c3ccccc3N3CCN(C(=O)c4cnco4)CC3)cc12 [Example F27-S131, 3-methyl-5-(N-(2-(4-(oxazole-5-carbonyl)piperazin-1-yl)phenyl)-N-phenethylsulfamoyl)benzofuran-2-carboxylic acid] as the molecule, how does the pIC50 read?
**A.** 5.00 to 7.00

**Q.** How did the pIC50 turn out when Cc1ccc(C(=O)N2CCN(c3ccccc3N(CCc3ccccc3)S(=O)(=O)c3ccc4oc(C(=O)O)c(C)c4c3)CC2)cc1C [Example F27-S132, 5-(N-(2-(4-(3,4-dimethylbenzoyl)piperazin-1-yl)phenyl)-N-phenethylsulfamoyl)3-methylbenzofuran-2-carboxylic acid] was run?
**A.** 5.00 to 7.00

**Q.** With COc1cccc(OC)c1C(=O)N1CCN(c2ccccc2N(CCc2ccccc2)S(=O)(=O)c2ccc3oc(C(=O)O)c(C)c3c2)CC1 [Example F27-S133, 5-(N-(2-(4-(2,6-dimethoxybenzoyl)piperazin-1-yl)phenyl)-N-phenethylsulfamoyl)3-methylbenzofuran-2-carboxylic acid] as the molecule, how does the pIC50 read?
**A.** 5.00 to 7.00

**Q.** Cc1c(C(=O)O)oc2ccc(S(=O)(=O)N(CCc3ccccc3)c3ccccc3N3CCN(C(=O)c4ccccc4Cc4ccccc4)CC3)cc12 [Example F27-S134, 5-(N-(2-(4-(2-benzylbenzoyl)piperazin-1-yl)phenyl)-N-phenethylsulfamoyl)3-methylbenzofuran-2-carboxylic acid] was tested. Which pIC50 did it give?
**A.** 5.00 to 7.00

**Q.** Cc1cc(C)c(C(=O)N2CCN(c3ccccc3N(CCc3ccccc3)S(=O)(=O)c3ccc4oc(C(=O)O)c(C)c4c3)CC2)c(C)c1 [Example F27-S135, 5-(N-(2-(4-(2,4,6-trimethylbenzoyl)piperazin-1-yl)phenyl)-N-phenethylsulfamoyl)3-methylbenzofuran-2-carboxylic acid] was tested. Which pIC50 did it give?
**A.** 5.00 to 7.00

**Q.** With COc1ccccc1C(=O)N1CCN(c2ccccc2N(CCc2ccccc2)S(=O)(=O)c2ccc3oc(C(=O)O)c(C)c3c2)CC1 [Example F27-S136, 5-(N-(2-(4-(2-methoxybenzoyl)piperazin-1-yl)phenyl)-N-phenethylsulfamoyl)3-methylbenzofuran-2-carboxylic acid] as the molecule, how does the pIC50 read?
**A.** 5.00 to 7.00

**Q.** How did the pIC50 turn out when Cc1ccc(C)c(C(=O)N2CCN(c3ccccc3N(CCc3ccccc3)S(=O)(=O)c3ccc4oc(C(=O)O)c(C)c4c3)CC2)c1 [Example F27-S137, 5-(N-(2-(4-(2,5-Dimethylbenzoyl)piperazin-1-yl)phenyl)-N-phenethylsulfamoyl)3-methylbenzofuran-2-carboxylic acid] was run?
**A.** 5.00 to 7.00

**Q.** Cc1c(C(=O)O)oc2ccc(S(=O)(=O)N(CCc3ccccc3)c3ccccc3N3CCN(C(=O)c4ccc(C#Cc5ccccc5)cc4)CC3)cc12 [Example F27-S138, 5-(N-(2-(4-(4-(phenylethynyl)benzoyl)piperazin-1-yl)phenyl)-N-phenethylsulfamoyl)3-methylbenzofuran-2-carboxylic acid] was tested. Which pIC50 did it give?
**A.** 5.00 to 7.00

**Q.** Cc1ccc(C(=O)N2CCN(c3ccccc3N(CCc3ccccc3)S(=O)(=O)c3ccc4oc(C(=O)O)c(C)c4c3)CC2)s1 [Example F27-S139, 5-(N-(2-(4-(5-methylthiophene-2-formyl)piperazin-1-yl)phenyl)-N-phenethylsulfamoyl)3-methylbenzofuran-2-carboxylic acid] was tested. Which pIC50 did it give?
**A.** 5.00 to 7.00

**Q.** Cc1csc(C(=O)N2CCN(c3ccccc3N(CCc3ccccc3)S(=O)(=O)c3ccc4oc(C(=O)O)c(C)c4c3)CC2)c1 [Example F27-S140, 5-(N-(2-(4-(4-methylthiophene-2-formyl)piperazin-1-yl)phenyl)-N-phenethylsulfamoyl)3-methylbenzofuran-2-carboxylic acid] was tested. Which pIC50 did it give?
**A.** 5.00 to 7.00

**Q.** Cc1ccsc1C(=O)N1CCN(c2ccccc2N(CCc2ccccc2)S(=O)(=O)c2ccc3oc(C(=O)O)c(C)c3c2)CC1 [Example F27-S141, 5-(N-(2-(4-(3-methylthiophene-2-formyl)piperazin-1-yl)phenyl)-N-phenethylsulfamoyl)3-methylbenzofuran-2-carboxylic acid] was tested. Which pIC50 did it give?
**A.** 5.00 to 7.00

**Q.** Cc1c(C(=O)O)oc2ccc(S(=O)(=O)N(CCc3ccccc3)c3ccccc3N3CCN(C(=O)c4ncc[nH]4)CC3)cc12 [Example F27-S142, 5-(N-(2-(4-(1H-imidazole-2-formyl)piperazin-1-yl)phenyl)-N-phenethylsulfamoyl)3-methylbenzofuran-2-carboxylic acid] was tested. Which pIC50 did it give?
**A.** 5.00 to 7.00

**Q.** How did the pIC50 turn out when Cc1c(C(=O)O)oc2ccc(S(=O)(=O)N(CCc3ccccc3)c3ccccc3N3CCN(C(=O)C4CCCS4)CC3)cc12 (centres unmarked) [Example F27-S143, 5-(N-(2-(4-(tetrahydrothiophene-2-formyl)piperazin-1-yl)phenyl)-N-phenethylsulfamoyl)3-methyl benzofuran-2-carboxylic acid] was run?
**A.** 5.00 to 7.00

**Q.** Cc1c(C(=O)O)oc2ccc(S(=O)(=O)N(CCc3ccccc3)c3ccccc3N3CCN(C(=O)c4c[nH]cn4)CC3)cc12 [Example F27-S144, 5-(N-(2-(4-(1H-imidazole-4-formyl)piperazin-1-yl)phenyl)-N-phenethylsulfamoyl)3-methylbenzofuran-2-carboxylic acid] was tested. Which pIC50 did it give?
**A.** 5.00 to 7.00

**Q.** With CCC(CC)C(=O)N1CCN(c2ccccc2N(CCc2ccccc2)S(=O)(=O)c2ccc3oc(C(=O)O)c(C)c3c2)CC1 [Example F27-S145, 5-(N-(2-(4-(2-ethylbutyryl)piperazin-1-yl)phenyl)-N-phenethylsulfamoyl)3-methylbenzofuran-2-carboxylic acid] as the molecule, how does the pIC50 read?
**A.** 5.00 to 7.00

**Q.** With Cc1c(C(=O)O)oc2ccc(S(=O)(=O)N(CCc3ccccc3)c3ccccc3N3CCN(C(=O)c4ccno4)CC3)cc12 [Example F27-S146, 5-(N-(2-(4-(isoxazole-5-carbonyl)piperazin-1-yl)phenyl)-N-phenethylsulfamoyl)3-methylbenzofuran-2-carboxylic acid] as the molecule, how does the pIC50 read?
**A.** 5.00 to 7.00

**Q.** Cc1c(C(=O)O)oc2ccc(S(=O)(=O)N(CCc3ccccc3)c3ccccc3N3CCC(NC(=O)c4sccc4Br)CC3)cc12 [Example F27-S147, 5-(N-(2-(4-(3-bromothiophene-2-carboxamido)piperidin-1-yl)phenyl)-N-phenethylsulfamoyl)-3-methylbenzofuran-2-carboxylic acid] was tested. Which pIC50 did it give?
**A.** 5.00 to 7.00

**Q.** Cc1c(C(=O)O)oc2ccc(S(=O)(=O)N(CCc3ccccc3)c3ccccc3N3CCC4(CCN(C(=O)c5sccc5Br)C4)CC3)cc12 [Example F27-S148] was tested. Which pIC50 did it give?
**A.** 5.00 to 7.00

**Q.** Cc1c(C(=O)O)oc2ccc(S(=O)(=O)N(CCc3ccccc3)c3ccccc3N3CC4(CCN(C(=O)c5sccc5Br)CC4)C3)cc12 [Example F27-S149, 5-(N-(2-(7-(3-bromothiophene-2-carbonyl)-2,7-diazaspiro[3.5]nonan-2-yl)phenyl)-N-phenethylsulfamoyl)-3-methylbenzofuran-2-carboxylic acid] was tested. Which pIC50 did it give?
**A.** 5.00 to 7.00
